# Experimental data: patent publication US8299111B2, “Compounds which modulate the CB2 receptor” (Boehringer Ingelheim International GmbH, priority 2006, dated 2012)
# Biological target: T1, human CB2R (Homo sapiens, UniProt P34972)
# T1 construct: host or cells: CHO cells
# Assay: CB2R mediated modulation of cAMP synthesis
# Format: cell-based
# Settings: found through the use of the above described assays (binding and cAMP); CHO cells expressing human CB2R, forskolin-stimulated cAMP
# Procedure: B. CB2R Mediated Modulation of cAMP Synthesis:
# CHO cells expressing human CB2R (Euroscreen) were plated at a density of 5000 cells per well in 384 well plates and incubated overnight at 37° C. After removing the media, the cells were treated with test compounds diluted in stimulation buffer containing 1 mM IBMX, 0.25% BSA and 10 uM Forskolin. The assay was incubated for 30 minutes at 37° C. Cells were lysed and the cAMP concentration was measured using DiscoverX -XS cAMP kit, following the manufacturer's protocol. In this setting, agonists will decrease forskolin induced production of cAMP while inverse agonists will further increase forskolin induced production of cAMP. EC50 of agonists were calculated as follows. The maximal amount of cAMP produced by forskolin compared to the level of cAMP inhibited by 1 uM CP55940 is defined as 100%. The EC50 value of each test compound was determined as the concentration at which 50% of the forskolin-stimulated cAMP synthesis was inhibited. Data was analyzed using a four-parameter logistic model. (Model 205 of XLfit 4.0).
# T1 sequence (P34972 whole entry): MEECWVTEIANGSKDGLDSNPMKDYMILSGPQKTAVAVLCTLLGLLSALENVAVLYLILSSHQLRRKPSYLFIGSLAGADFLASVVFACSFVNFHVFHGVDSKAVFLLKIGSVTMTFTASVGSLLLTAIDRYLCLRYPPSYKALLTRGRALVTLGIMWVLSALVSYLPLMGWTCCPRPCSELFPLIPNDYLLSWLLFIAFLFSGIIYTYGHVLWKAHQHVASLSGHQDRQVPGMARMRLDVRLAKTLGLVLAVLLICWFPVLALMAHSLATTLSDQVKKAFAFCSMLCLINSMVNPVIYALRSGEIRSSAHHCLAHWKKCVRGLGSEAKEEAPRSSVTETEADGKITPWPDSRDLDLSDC
row,SMILES,agonistic activity
1,Cc1noc(NC(=O)C(C)(C)S(=O)(=O)c2ccc(Cl)cc2)c1-c1ccccc1 [2-(4-Chloro-benzenesulfonyl)-2-methyl-N-(3-methyl-4-phenyl-isoxazol-5-yl)-propionamide],agonistic activity
2,"CC(C)(C(=O)Nc1nc(-c2ccccc2)no1)S(=O)(=O)c1ccc(Cl)cc1 [2-(4-Chloro-benzenesulfonyl)-2-methyl-N-(3-phenyl-[1,2,4]oxadiazol-5-yl)-propionamide]",agonistic activity
3,"CC(C)(C(=O)Nc1nc(-c2ccccc2)ns1)S(=O)(=O)c1ccc(Cl)cc1 [2-(4-Chloro-benzenesulfonyl)-2-methyl-N-(3-phenyl-[1,2,4]thiadiazol-5-yl)-propionamide]",agonistic activity
4,CC(C)(C(=O)Nc1cc(-c2ccccc2)no1)S(=O)(=O)c1ccc(Cl)cc1 [2-(4-Chloro-benzenesulfonyl)-2-methyl-N-(3-phenyl-isoxazol-5-yl)-propionamide],agonistic activity
5,CCCc1cc(NC(=O)C(C)(C)S(=O)(=O)c2ccc(Cl)cc2)on1 [2-(4-Chloro-benzenesulfonyl)-2-methyl-N-(3-propyl-isoxazol-5-yl)-propionamide],agonistic activity
6,CC(C)(C(=O)Nc1cc(-c2cccs2)no1)S(=O)(=O)c1ccc(Cl)cc1 [2-(4-Chloro-benzenesulfonyl)-2-methyl-N-(3-thiophen-2-yl-isoxazol-5-yl)-propionamide],agonistic activity
7,CC(C)(C(=O)Nc1cccc(C(F)(F)F)c1)S(=O)(=O)c1ccc(Cl)cc1 [2-(4-Chloro-benzenesulfonyl)-2-methyl-N-(3-trifluoromethyl-phenyl)-propionamide],agonistic activity
8,CC(C)(C(=O)Nc1nc(-c2ccccc2)co1)S(=O)(=O)c1ccc(Cl)cc1 [2-(4-Chloro-benzenesulfonyl)-2-methyl-N-(4-phenyl-oxazol-2-yl)-propionamide],agonistic activity
9,CC(C)(C(=O)Nc1ccc(C(F)(F)F)cc1)S(=O)(=O)c1ccc(Cl)cc1 [2-(4-Chloro-benzenesulfonyl)-2-methyl-N-(4-trifluoromethyl-phenyl)-propionamide],agonistic activity
10,CC(C)(C(=O)Nc1cc(C(F)(F)F)ccn1)S(=O)(=O)c1ccc(Cl)cc1 [2-(4-Chloro-benzenesulfonyl)-2-methyl-N-(4-trifluoromethyl-pyridin-2-yl)-propionamide],agonistic activity
11,Cc1cc(NC(=O)C(C)(C)S(=O)(=O)c2ccc(Cl)cc2)n(-c2ccccc2)n1 [2-(4-Chloro-benzenesulfonyl)-2-methyl-N-(5-methyl-2-phenyl-2H-pyrazol-3-yl)-propionamide],agonistic activity
12,Cc1cc(NC(=O)C(C)(C)S(=O)(=O)c2ccc(Cl)cc2)no1 [2-(4-Chloro-benzenesulfonyl)-2-methyl-N-(5-methyl-isoxazol-3-yl)-propionamide],agonistic activity
13,"CC(C)(C(=O)Nc1n[nH]c(-c2ccccc2)n1)S(=O)(=O)c1ccc(Cl)cc1 [2-(4-Chloro-benzenesulfonyl)-2-methyl-N-(5-phenyl-2H-[1,2,4]triazol-3-yl)-propionamide]",agonistic activity
14,"CC(C)(C(=O)Nc1nsc(-c2ccccc2)n1)S(=O)(=O)c1ccc(Cl)cc1 [2-(4-Chloro-benzenesulfonyl)-2-methyl-N-(5-phenyl-[1,2,4]thiadiazol-3-yl)-propionamide]",agonistic activity
15,"CC(C)(C(=O)Nc1nnc(-c2ccccc2)s1)S(=O)(=O)c1ccc(Cl)cc1 [2-(4-Chloro-benzenesulfonyl)-2-methyl-N-(5-phenyl-[1,3,4]thiadiazol-2-yl)-propionamide]",agonistic activity

# The remaining lines, values ahead:
row,agonistic activity,SMILES
1,agonistic activity,CC(C)(C(=O)Nc1ncccc1C(F)(F)F)S(=O)(=O)c1ccc(Cl)cc1 [2-(4-Chloro-benzenesulfonyl)-2-methyl-N-(3-trifluoromethyl-pyridin-2-yl)-propionamide]
2,agonistic activity,"CC(C)(C(=O)Nc1nc2c(s1)CCCC2)S(=O)(=O)c1ccc(Cl)cc1 [2-(4-Chloro-benzenesulfonyl)-2-methyl-N-(4,5,6,7-tetrahydro-benzothiazol-2-yl)-propionamide]"
3,agonistic activity,Cc1c(-c2ccccc2)noc1NC(=O)C(C)(C)S(=O)(=O)c1ccc(Cl)cc1 [2-(4-Chloro-benzenesulfonyl)-2-methyl-N-(4-methyl-3-phenyl-isoxazol-5-yl)-propionamide]
4,agonistic activity,Cc1ccnc(NC(=O)C(C)(C)S(=O)(=O)c2ccc(Cl)cc2)c1 [2-(4-Chloro-benzenesulfonyl)-2-methyl-N-(4-methyl-pyridin-2-yl)-propionamide]
5,agonistic activity,Cc1csc(NC(=O)C(C)(C)S(=O)(=O)c2ccc(Cl)cc2)n1 [2-(4-Chloro-benzenesulfonyl)-2-methyl-N-(4-methyl-thiazol-2-yl)-propionamide]
6,agonistic activity,CC(C)(C(=O)Nc1nc(-c2ccccc2)cs1)S(=O)(=O)c1ccc(Cl)cc1 [2-(4-Chloro-benzenesulfonyl)-2-methyl-N-(4-phenyl-thiazol-2-yl)-propionamide]
7,agonistic activity,CC(C)(C(=O)Nc1nc(CN2CCCCC2)cs1)S(=O)(=O)c1ccc(Cl)cc1 [2-(4-Chloro-benzenesulfonyl)-2-methyl-N-(4-piperidin-1-ylmethyl-thiazol-2-yl)-propionamide]
8,agonistic activity,CC(C)(C(=O)Nc1nc(-c2ccccn2)cs1)S(=O)(=O)c1ccc(Cl)cc1 [2-(4-Chloro-benzenesulfonyl)-2-methyl-N-(4-pyridin-2-yl-thiazol-2-yl)-propionamide]
9,agonistic activity,CC(C)(C(=O)Nc1nc(-c2cccnc2)cs1)S(=O)(=O)c1ccc(Cl)cc1 [2-(4-Chloro-benzenesulfonyl)-2-methyl-N-(4-pyridin-3-yl-thiazol-2-yl)-propionamide]
10,agonistic activity,CC(C)(C(=O)Nc1nc(-c2ccncc2)cs1)S(=O)(=O)c1ccc(Cl)cc1 [2-(4-Chloro-benzenesulfonyl)-2-methyl-N-(4-pyridin-4-yl-thiazol-2-yl)-propionamide]
11,agonistic activity,CC(C)(C(=O)Nc1nc(-c2cccs2)cs1)S(=O)(=O)c1ccc(Cl)cc1 [2-(4-Chloro-benzenesulfonyl)-2-methyl-N-(4-thiophen-2-yl-thiazol-2-yl)-propionamide]
12,agonistic activity,CC(C)(C(=O)Nc1nc(C(F)(F)F)cs1)S(=O)(=O)c1ccc(Cl)cc1 [2-(4-Chloro-benzenesulfonyl)-2-methyl-N-(4-trifluoromethyl-thiazol-2-yl)-propionamide]
13,agonistic activity,Cc1sc(NC(=O)C(C)(C)S(=O)(=O)c2ccc(Cl)cc2)nc1-c1ccccc1 [2-(4-Chloro-benzenesulfonyl)-2-methyl-N-(5-methyl-4-phenyl-thiazol-2-yl)-propionamide]
14,agonistic activity,Cc1ccc(NC(=O)C(C)(C)S(=O)(=O)c2ccc(Cl)cc2)nc1 [2-(4-Chloro-benzenesulfonyl)-2-methyl-N-(5-methyl-pyridin-2-yl)-propionamide]
